Consider 22 compounds from patent publication US20260297070A1, “CYCLIC [COMPOUND LEFT OUT] WRN INHIBITORS” (Nimbus Wadjet, Inc., priority 2023, published 2026).

T1 sequence (Q14191 with tags, fused parts or gaps L1074F limits assumed): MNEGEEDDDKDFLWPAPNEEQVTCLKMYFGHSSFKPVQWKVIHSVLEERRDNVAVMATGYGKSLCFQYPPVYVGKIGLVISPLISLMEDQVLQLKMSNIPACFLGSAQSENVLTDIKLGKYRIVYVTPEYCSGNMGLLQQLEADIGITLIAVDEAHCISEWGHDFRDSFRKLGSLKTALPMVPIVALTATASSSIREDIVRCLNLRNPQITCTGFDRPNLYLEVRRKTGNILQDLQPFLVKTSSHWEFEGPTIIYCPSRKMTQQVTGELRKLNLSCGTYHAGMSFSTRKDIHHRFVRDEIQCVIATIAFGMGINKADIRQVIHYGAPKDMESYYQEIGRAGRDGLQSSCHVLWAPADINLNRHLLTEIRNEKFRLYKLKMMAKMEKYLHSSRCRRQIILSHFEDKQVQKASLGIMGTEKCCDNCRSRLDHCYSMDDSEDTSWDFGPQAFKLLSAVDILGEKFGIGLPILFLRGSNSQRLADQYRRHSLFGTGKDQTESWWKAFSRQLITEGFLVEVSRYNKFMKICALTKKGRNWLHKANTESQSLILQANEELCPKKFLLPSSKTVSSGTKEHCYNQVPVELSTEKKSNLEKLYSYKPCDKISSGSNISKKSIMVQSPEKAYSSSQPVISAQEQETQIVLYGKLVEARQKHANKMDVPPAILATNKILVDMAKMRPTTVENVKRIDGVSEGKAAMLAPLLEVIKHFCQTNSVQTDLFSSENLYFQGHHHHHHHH

The experiment addresses T1, human Werner helicase (WRN-BV08, Uniprot Q14191, amino acids 517-1235 with L1074F point mutation) (Homo sapiens, UniProt Q14191, L1074F).
T1 construct: Uniprot Q14191, amino acids 517-1235 with L1074F point mutation; TEV-cleavable 8×His (C, cleaved yes); made in house; host or cells: Sf9 insect cells (baculovirus)
Nature of the experiment: WRN (BV08) ADP-Glo Assay. The format is biochemical. As to conditions: 0.15 nM WRN, 5 μM ATP, 0.1 nM DNA duplex, 15 min preincubation, 60 min at 25° C., pH 7.5, 1% DMSO; read-out: ADP-Glo_hWRN_IC50. In a few lines: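 0.15 nM WRN (aa 517-1235, L1074F, Sf9-expressed, tag cleaved) preincubated 15 min at 25 °C with compound, then 5 μM ATP and 0.1 nM DNA duplex added for 60 min. Buffer: 20 mM Bicine pH 7.5, 1 mM MgCl2, 10 mM KCl, 1 mM TCEP; 1% DMSO. ADP-Glo luminescence; IC50 by 4-parameter fit.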
In general terms: ADP-Glo turns the ADP formed in a reaction into a luminescent signal.
With `O=C(Cc1ccc(OCc2ccccc2)cc1)N(Cc1ccncc1)C1C=CS(=O)(=O)C1` (stereo not shown) [I-501, 2-[4-(benzyloxy)phenyl]-N-(1,1-dioxo-2,3-dihydro-1lambda6-thiophen-3-yl)-N-[(pyridin-4-yl)methyl]acetamide], the IC50 is above 50 µM.

With `O=C(Cc1c[nH]c2cc(Cl)ccc12)N(Cc1ccncc1)C1C=CS(=O)(=O)C1` (stereo not shown) [I-417, 2-(6-chloro-1H-indol-3-yl)-N-(1,1-dioxo-2,3-dihydro-1lambda6-thiophen-3-yl)-N-[(pyridin-4-yl)methyl]acetamide], the IC50 was above 50 µM.

Take `CC(C)(O)c1cc(CN(C(=O)Cn2cc(-c3ccc(F)c(F)c3)cn2)[C@@H]2C=CS(=O)(=O)C2)ccn1` [I-6, (R)-2-(4-(3,4-difluorophenyl)-1H-pyrazol-1-yl)-N-(1,1-dioxido-2,3-dihydrothiophen-3-yl)-N-((2-(2-hydroxypropan-2-yl)pyridin-4-yl)methyl)acetamide]: the IC50 is below 0.5 µM.

Take `COc1ccc(CC(=O)N(Cc2ccncc2)C2C=CS(=O)(=O)C2)cc1OC(F)F` (stereo not shown) [I-697, 2-[3-(difluoromethoxy)-4-methoxyphenyl]-N-(1,1-dioxo-2,3-dihydro-1lambda6-thiophen-3-yl)-N-[(pyridin-4-yl)methyl]acetamide]: the IC50 is above 50 µM.

As for `COC(C(=O)N(Cc1ccncc1)C1C=CS(=O)(=O)C1)c1ccc(-c2ccc(F)cc2)cc1` (stereo not shown) [I-144, N-(1,1-dioxo-2,3-dihydro-1lambda6-thiophen-3-yl)-2-{4′-fluoro-[1,1′-biphenyl]-4-yl}-2-methoxy-N-[(pyridin-4-yl)methyl]acetamide], the IC50 is 0.5 to 5 µM.

As for `O=C(Cn1ccc(-c2ccccc2)n1)N(Cc1ccncc1)C1C=CS(=O)(=O)C1` (stereo not shown) [I-450, N-(1,1-dioxo-2,3-dihydro-1lambda6-thiophen-3-yl)-2-(3-phenyl-1H-pyrazol-1-yl)-N-[(pyridin-4-yl)methyl]acetamide], the IC50 was above 50 µM.

For the compound `O=C(Cc1ccc(-n2cccc2)cc1)N(Cc1ccccc1Cl)C1C=CS(=O)(=O)C1` (stereo not shown) [I-521, N-[(2-chlorophenyl)methyl]-N-(1,1-dioxo-2,3-dihydro-1lambda6-thiophen-3-yl)-2-[4-(1H-pyrrol-1-yl)phenyl]acetamide], the IC50 was above 50 µM.

Consider `CN(C)C(=O)C(C(=O)N(Cc1ccncc1)C1C=CS(=O)(=O)C1)c1ccc(-c2ccc(F)cc2)cc1` (single isomer, unassigned) [I-27, (2R**)-N′-[(3R*)-1,1-dioxo-2,3-dihydro-1lambda6-thiophen-3-yl]-2-{4′-fluoro-[1,1′-biphenyl]-4-yl}-N,N-dimethyl-N′-[(pyridin-4-yl)methyl]propanediamide], for which the IC50 is below 0.5 µM.

Regarding `O=C(Cc1ccc(-n2cccc2)cc1)N(Cc1cnc2ccccc2c1)C1C=CS(=O)(=O)C1` (stereo not shown) [I-296, N-(1,1-dioxo-2,3-dihydro-1lambda6-thiophen-3-yl)-2-[4-(1H-pyrrol-1-yl)phenyl]-N-[(quinolin-3-yl)methyl]acetamide], the IC50 was in the range of 10 to 50 µM.

`Cc1cccn1-c1ccc(CC(=O)N(Cc2ccnc(CC(C)(C)O)c2)C2C=CS(=O)(=O)C2)c(F)c1` (stereo not shown) [I-139, N-(1,1-dioxo-2,3-dihydro-1lambda6-thiophen-3-yl)-2-[2-fluoro-4-(2-methyl-1H-pyrrol-1-yl)phenyl]-N-{[2-(2-hydroxy-2-methylpropyl)pyridin-4-yl]methyl}acetamide]: the IC50 lay within 0.5 to 5 µM.

With `COc1cc(CN(C(=O)Cc2ccc(C(C)(F)F)cc2)C2C=CS(=O)(=O)C2)ccn1` (stereo not shown) [I-117, 2-[4-(1,1-difluoroethyl)phenyl]-N-(1,1-dioxo-2,3-dihydro-1lambda6-thiophen-3-yl)-N-[(2-methoxypyridin-4-yl)methyl]acetamide], the IC50 lay within 0.5 to 5 µM.

Regarding `Cc1cnc(CN(C(=O)Cc2ccc(-n3cccc3)cc2)C2C=CS(=O)(=O)C2)s1` (stereo not shown) [I-274, N-(1,1-dioxo-2,3-dihydro-1lambda6-thiophen-3-yl)-N-[(5-methyl-1,3-thiazol-2-yl)methyl]-2-[4-(1H-pyrrol-1-yl)phenyl]acetamide], the IC50 is 5 to 10 µM.

Take `CC(C)(O)c1cc(CN(C(=O)C2CCCc3c(-c4cc(F)c(F)c(F)c4)cnn32)[C@@H]2C=CS(=O)(=O)C2)ccn1` (single isomer, unassigned) [I-806]: the IC50 fell in the range of 0.5 to 5 µM.

Turning to `COc1cc(CN(C(=O)C(OCC2CCN(S(C)(=O)=O)C2)c2ccc(-c3ccc(F)c(F)c3)cc2F)[C@@H]2C=CS(=O)(=O)C2)ccn1` (stereo partly drawn) [I-808, N-[(3R)-1,1-dioxo-2,3-dihydro-1lambda6-thiophen-3-yl]-2-[(1-methanesulfonylpyrrolidin-3-yl)methoxy]-N-[(2-methoxypyridin-4-yl)methyl]-2-{3,3′,4′-trifluoro-[1,1′-biphenyl]-4-yl}acetamide], the IC50 is 0.5 to 5 µM.

Turning to `CC(C)(O)c1csc(CN(C(=O)Cn2cc(-c3cc(F)c(F)c(F)c3)cn2)C2C=CS(=O)(=O)C2)n1` (single isomer, unassigned) [I-798], the IC50 is below 0.5 µM.

With `O=C(Cc1ncc(-n2cccc2)s1)N(Cc1ccncc1)C1C=CS(=O)(=O)C1` (stereo not shown) [I-279, N-(1,1-dioxo-2,3-dihydro-1lambda6-thiophen-3-yl)-N-[(pyridin-4-yl)methyl]-2-[5-(1H-pyrrol-1-yl)-1,3-thiazol-2-yl]acetamide], the IC50 fell in the range of 5 to 10 µM.

As for `COc1cc(CN(C(=O)C2Cc3cc(C(F)(F)F)ccc3O2)[C@@H]2C=CS(=O)(=O)C2)ccn1` (stereo partly drawn) [I-114, N-[(3R)-1,1-dioxo-2,3-dihydro-1lambda6-thiophen-3-yl]-N-[(2-methoxypyridin-4-yl)methyl]-5-(trifluoromethyl)-2,3-dihydro-1-benzofuran-2-carboxamide], the IC50 was in the range of 0.5 to 5 µM.

Regarding `COc1cc(CN(C(=O)C(C(=O)N(C)C)c2ccc(S(F)(F)(F)(F)F)cc2)C2C=CS(=O)(=O)C2)ccn1` (stereo not shown) [I-159, N′-(1,1-dioxo-2,3-dihydro-1lambda6-thiophen-3-yl)-N′-[(2-methoxypyridin-4-yl)methyl]-N,N-dimethyl-2-[4-(pentafluoro-lambda6-sulfanyl)phenyl]propanediamide], the IC50 fell in the range of 0.5 to 5 µM.

With `N#Cc1ccc2c(CC(=O)N(Cc3ccncc3)C3C=CS(=O)(=O)C3)c[nH]c2c1` (stereo not shown) [I-546, 2-(6-cyano-1H-indol-3-yl)-N-(1,1-dioxo-2,3-dihydro-1lambda6-thiophen-3-yl)-N-[(pyridin-4-yl)methyl]acetamide], the IC50 is above 50 µM.

On to `O=C(Cc1ccc(-n2cccc2)cc1)N(Cc1ccc2c(c1)OCO2)C1C=CS(=O)(=O)C1` (stereo not shown) [I-225, N-[(2H-1,3-benzodioxol-5-yl)methyl]-N-(1,1-dioxo-2,3-dihydro-1lambda6-thiophen-3-yl)-2-[4-(1H-pyrrol-1-yl)phenyl]acetamide], for which the IC50 was in the range of 5 to 10 µM.

With `CC(C)(N)c1ccc(CN(C(=O)Cn2cc(-c3ccc(F)c(F)c3)cn2)C2C=CS(=O)(=O)C2)cc1` (stereo not shown) [I-795, N-{[4-(2-aminopropan-2-yl)phenyl]methyl}-2-[4-(3,4-difluorophenyl)-1H-pyrazol-1-yl]-N-(1,1-dioxo-2,3-dihydro-1lambda6-thiophen-3-yl)acetamide], the IC50 lay in the range of 0.5 to 5 µM.

As for `O=C(Cn1ncc2ccc(C(F)F)cc21)N(Cc1ccncc1)C1C=CS(=O)(=O)C1` (stereo not shown) [I-593, 2-[6-(difluoromethyl)-1H-indazol-1-yl]-N-(1,1-dioxo-2,3-dihydro-1lambda6-thiophen-3-yl)-N-[(pyridin-4-yl)methyl]acetamide], the IC50 is above 50 µM.
